# From patent US12409183B2, “Method of using iloprost for treating frostbite” (BTG INTERNATIONAL INC., priority 2023, dated 2025)
# Like-named read-outs stand apart in the source and are kept apart here.
# Key:
# [1] = IV bag solution stability of fully diluted ready-to-use iloprost (HPLC); assay type: physicochemical; settings: condition ia, 25° C./60% RH study; Table 1A
# Protocol: Iloprost 100 μg/mL injection product is administered to patients by IV bag infusion over a period of six hours. The fully diluted ready to use iloprost is prepared in pharmacy cleanroom using sterile preparation standards (USP Chapter <797>) by pharmacy trained and licensed staff. The fully diluted ready to use drug product may be prepared several hours ahead of treatment with storage at ambient conditions or several days ahead of treatment with storage at refrigerated (2-8° C.) conditions. […] The bags are then manually mixed gently to provide a uniform solution. Administration IV bags were prepared and stored at several conditions with routine sampling for assay testing for stability under i) 25° C./60% RH, ii) 5° C. for 5 days to 25° C./60% RH, iii) 5° C. for 8 days to 25° C./60% RH. […] Sampling time for condition […], and 24 h Sampling time for ib): 8 h, 12 h, 48 h, and 96 h Sampling time for condition ii): 5 days (at the end of storage in 2-8° C. stability chamber), 5 days and 8 h, and 5 days and 12 h Sampling time for condition iii): 8 days (at the end of storage in 2-8° C. stability chamber), 8 days and 8 h, and 8 days and 12 h Sample Analysis: Samples were analyzed by HPLC using a validated method (validation protocol not shown). […] The % Initial (initial concentration) of each stored sample was determined per the equation below: […]
# [2] = tested on: severe frostbite; experiment: systematic literature review and meta-analysis of amputation rates in severe frostbite; assay type: in vivo, human
# Protocol: Frostbite is an injury caused by exposure of tissue to freezing temperatures. Severe frostbite may result in amputation leading to considerable morbidity. The objective was to identify and synthesize, via systematic literature review and meta-analysis (MA), evidence published on patient-level historical amputation rates in adults with severe frostbite treated with and without iloprost.
# Methods: The literature review was conducted using Preferred Reporting Items for Systematic Reviews and Meta-Analyses (PRISMA) guidelines. It identified English-language articles published from Jan. 1, 2000 to Jul. 31, 2022 reporting amputation rates associated with iloprost and standard of care (SoC) treatments in severe frostbite. Study designs of interest were clinical trials (randomized and single arm), observational studies, and case series with at least 10 patients. MAs of proportions of patients with amputation were conducted. The published studies considered for the MA include:
# Determination of Risk of Amputation: Table 1 discloses the historical amputation rates in severe frostbite patients. The studies listed in Table 1 was the basis of MA for determining the historical risk of amputation.
# Sensitivity analyses reflect several ways of deriving the data (amputation rate for grade 3-4 frostbite) from the supplemental table in Cauchy 2011 (Cauchy et al., 2011).
# Efficacy Proportion of Digits with Amputation: Data from 2 studies reporting the proportion of digits with amputations after receiving iloprost versus SoC for Grade 3/4 frostbite were included in the meta-analysis.
# [3] = iloprost infusion; ratio x:1; cited from earlier work
# [4] = tested on: severe frostbite; settings: cited from earlier work
# [5] = Cauchy 2011, iloprost alone and iloprost+tPA combined (n=177)
structure (smiles),measurement,setting,value
"CC#CCC(C)[C@H](O)/C=C/[C@@H]1[C@H]2C/C(=C/CCCC(=O)O)C[C@H]2C[C@H]1O (stereo partly drawn) [iloprost, (5E)-5-[(3aS,4R,5R,6aS)-5-hydroxy-4-[(E,3S)-3-hydroxy-4-methyloct-1-en-6-ynyl]-3,3a,4,5,6,6a-hexahydro-1H-pentalen-2-ylidene]pentanoic acid]",% initial results for all of the IV bag preparations (range),[1],94.2-94.9%
same,"odds ratio (OR) of digit amputation, iloprost+tPA patients of Cauchy 2011 added","[2]; iloprost alone and iloprost plus tPA vs SoC, 95% CI: 0.001, 1.12, p=0.057, FIG. 4",0.034
same,"odds ratio (OR) of digit amputation, base-case","[2]; iloprost alone vs SoC, 2 studies meta-analyzed, 95% CI: 0.002-0.966, p=0.047, FIG. 3",0.047
same,"proportion of patients with amputation, pooled arm-level data","[2]; meta-analysis, random effects, 95% CI: 0-45%, FIG. 2",15%
same,"advantage for iloprost over SoC (reduction in amputation), base-case","[2]; studies with severe frostbite, no alprostadil, 95% CI: 6-73%, p=0.02",39%
same,ratio of antiaggregatory:vasodilatory potency in vivo,[3],2-7
same,Amputation Rate: patients considered likely to receive amputation,"[4]; Cauchy 2011, open label RCT, severe (grades 3 or 4) frostbite, with SoC after rewarming, radiotracer anomaly in technetium scintigraphy after 8 days of treatment",0 patients
same,digits with amputation,"[4]; Cauchy 2011, Grade 3/4 frostbite, iloprost alone",zero out of 78
same,digit amputations,[4]; [5],1.3%
same,number of digit amputations,[4]; [5],3
same,digits with amputation,"[4]; Crooks 2022, Grade 3-4 frostbite, minority of iloprost patients also received tPA (5 of 26)",31.1%
same,patients with amputation,"[4]; Poole 2021, iloprost plus SoC, with or without alteplase and heparin",33%
same,safety events associated with iloprost,"[4]; three iloprost frostbite studies, headache, flushing, palpitations/tachycardia, nausea and vomiting",generally mild
